pEC50: −log10 of the molar value. Read-outs that look alike come from different tables or passages of the source.
Assays:
hNPY2R = target: T1, hNPY2R (Homo sapiens, UniProt P49146); assay: hNPY2R CreLuc assay in 0.5% and 100% plasma (HEK-293 CRE-luciferase reporter cells); assay type: cell-based; details: HEK-293 reporter cells
T1 construct: expressed in transfected cells; host or cells: HEK-293 CRE-luciferase reporter cells
T1 sequence (P49146 1-381): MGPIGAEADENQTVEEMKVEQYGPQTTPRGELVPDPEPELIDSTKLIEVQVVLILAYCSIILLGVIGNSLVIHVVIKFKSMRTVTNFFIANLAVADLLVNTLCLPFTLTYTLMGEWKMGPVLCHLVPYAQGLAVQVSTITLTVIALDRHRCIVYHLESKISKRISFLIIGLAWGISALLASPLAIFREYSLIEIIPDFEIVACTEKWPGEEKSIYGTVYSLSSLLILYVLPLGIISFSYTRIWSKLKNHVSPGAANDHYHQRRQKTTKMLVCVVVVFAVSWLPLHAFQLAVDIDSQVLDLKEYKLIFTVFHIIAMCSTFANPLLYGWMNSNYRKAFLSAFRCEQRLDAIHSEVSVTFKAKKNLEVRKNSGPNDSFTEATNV

hGIPR = target: T2, hGIPR (Homo sapiens, UniProt P48546); assay: hGIPR CreLuc assay in 0.5% and 100% plasma (CHO CRE-luciferase reporter cells); assay type: cell-based
T2 construct: expressed in transfected cells; host or cells: CHO CRE-luciferase reporter cells
T2 sequence (P48546 22-466): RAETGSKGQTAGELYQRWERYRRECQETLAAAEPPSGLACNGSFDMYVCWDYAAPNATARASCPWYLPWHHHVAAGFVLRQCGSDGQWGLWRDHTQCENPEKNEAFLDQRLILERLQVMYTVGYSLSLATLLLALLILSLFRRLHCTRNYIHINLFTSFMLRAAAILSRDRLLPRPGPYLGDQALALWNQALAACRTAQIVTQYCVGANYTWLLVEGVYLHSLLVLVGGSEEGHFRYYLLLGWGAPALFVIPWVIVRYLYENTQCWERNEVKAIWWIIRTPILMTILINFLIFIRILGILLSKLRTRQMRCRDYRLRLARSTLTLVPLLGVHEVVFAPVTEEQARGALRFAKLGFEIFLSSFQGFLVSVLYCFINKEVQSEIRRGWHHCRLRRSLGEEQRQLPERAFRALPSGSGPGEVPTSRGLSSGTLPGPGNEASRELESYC

hGLP1R = target: T3, hGLP1R (Homo sapiens, UniProt P43220); assay: hGLP1R CreLuc assay in 0.5% and 100% plasma (HEK-293 CRE-luciferase reporter cells); assay type: cell-based; details: 0.5% human plasma, HEK-293 reporter cells, read-out: hGLP1R 0.5% hP
T3 construct: expressed in transfected cells; host or cells: HEK-293 CRE-luciferase reporter cells

[1] = Solubility in 0.1 M phosphate buffer at pH 7; assay type: physicochemical; details: 0.1 M phosphate buffer at pH 7, 10 mg/mL final peptide concentration, shaking 2 hours at room temperature, peptides as TFA-salts; measured sample pH 6.5-7.0
[2] = 0.5% human plasma, read-out: hGIPR 0.5% hP
[3] = 100% human plasma, read-out: hNPY2R 100% hP

T3 sequence (P43220 24-463): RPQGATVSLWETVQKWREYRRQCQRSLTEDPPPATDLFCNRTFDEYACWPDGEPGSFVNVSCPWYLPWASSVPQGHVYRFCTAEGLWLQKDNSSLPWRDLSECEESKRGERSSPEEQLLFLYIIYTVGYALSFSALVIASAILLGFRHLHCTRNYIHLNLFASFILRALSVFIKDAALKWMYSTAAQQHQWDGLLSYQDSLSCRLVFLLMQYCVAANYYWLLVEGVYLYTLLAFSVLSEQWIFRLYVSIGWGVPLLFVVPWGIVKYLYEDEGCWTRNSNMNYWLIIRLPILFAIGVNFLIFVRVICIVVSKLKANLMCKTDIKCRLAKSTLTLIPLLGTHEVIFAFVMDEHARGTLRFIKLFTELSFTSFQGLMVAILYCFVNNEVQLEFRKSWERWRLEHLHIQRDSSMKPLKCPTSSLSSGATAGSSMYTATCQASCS

Structure (SMILES)	pEC50 (hNPY2R; 0.5% human plasma, read-out: hNPY2R 0.5% hP)	pEC50 (hGIPR; [2])	pEC50 (hGLP1R)	solubility at 2 h [1]	pEC50 (hNPY2R; [3])	pEC50 (hGIPR; 100% human plasma, read-out: hGIPR 100% hP)
CC[C@H](C)[C@H](NC(=O)[C@H](CC(C)C)NC(=O)[C@H](Cc1c[nH]cn1)NC(=O)[C@H](CCCNC(=N)N)NC(=O)[C@@H](NC(=O)[C@H](Cc1ccccc1)NC(=O)[C@H](CCC(=O)O)NC(=O)C(C)(C)NC(=O)[C@H](CCC(N)=O)NC(=O)[C@H](C)NC(=O)[C@H](CCC(=O)O)NC(=O)[C@H](CCC(=O)O)NC(=O)[C@H](CCC(=O)O)NC(=O)[C@H](CC(C)C)NC(=O)C(C)(C)NC(=O)[C@@H](NC(=O)[C@H](CO)NC(=O)[C@H](Cc1ccc(O)cc1)NC(=O)[C@H](CC(=O)O)NC(=O)[C@H](CO)NC(=O)[C@@H](NC(=O)[C@H](Cc1ccccc1)NC(=O)[C@@H](NC(=O)CNC(=O)[C@H](CCC(=O)O)NC(=O)C(C)(C)NC(=O)[C@@H](N)Cc1ccc(O)cc1)[C@@H](C)O)[C@@H](C)O)[C@@H](C)CC)C(C)C)C(=O)N[C@@H](CC(N)=O)C(=O)N[C@@H](CCCCNC(=O)CC[C@H](NC(=O)CC[C@H](NC(=O)CC[C@H](NC(=O)CC[C@H](NC(=O)CCCCCCCCCCCCCCCCC(=O)O)C(=O)O)C(=O)O)C(=O)O)C(=O)O)C(=O)NC(C)(C)C(=O)N[C@H](C(=O)N[C@@H](CCCNC(=N)N)C(=O)N[C@@H](CCC(N)=O)C(=O)N[C@@H](CCCNC(=N)N)C(=O)N[C@@H](Cc1ccc(O)cc1)C(N)=O)[C@@H](C)O [Compound 64, Y-Aib-E-G-T-F-T-S-D-Y-S-I-Aib-L-E-E-E-A-Q-Aib-E-F-V-R-H-L-I-N-K(1,3)-Aib-T-R-Q-R-Y-NH2.C18DA-gGlu-gGlu-gGlu-gGlu(1,2)]	6.79	9.30	9.30	4.8 mg/mL	–	–
CC[C@H](C)[C@H](NC(=O)[C@H](CC(C)C)NC(=O)[C@H](Cc1c[nH]cn1)NC(=O)[C@H](CCCNC(=N)N)NC(=O)[C@@H](NC(=O)[C@H](Cc1ccccc1)NC(=O)[C@H](C)NC(=O)C(C)(C)NC(=O)[C@H](CCC(N)=O)NC(=O)[C@H](C)NC(=O)[C@H](CCC(N)=O)NC(=O)[C@H](CCC(N)=O)NC(=O)[C@H](CC(=O)O)NC(=O)[C@H](CC(C)C)NC(=O)C(C)(C)NC(=O)[C@@H](NC(=O)[C@H](CO)NC(=O)[C@H](Cc1ccc(O)cc1)NC(=O)[C@H](CC(=O)O)NC(=O)[C@H](CO)NC(=O)[C@@H](NC(=O)[C@H](Cc1ccccc1)NC(=O)[C@@H](NC(=O)CNC(=O)[C@H](CCC(=O)O)NC(=O)C(C)(C)NC(=O)[C@@H](N)Cc1ccc(O)cc1)[C@@H](C)O)[C@@H](C)O)[C@@H](C)CC)C(C)C)C(=O)N[C@@H](CC(N)=O)C(=O)N[C@@H](CCCCNC(=O)[C@@H](N)CCCCNC(=O)CC[C@H](NC(=O)CC[C@H](NC(=O)CC[C@H](NC(=O)CC[C@H](NC(=O)CC[C@H](NC(=O)CCCCCCCCCCCCCCCCC(=O)O)C(=O)O)C(=O)O)C(=O)O)C(=O)O)C(=O)O)C(=O)NC(C)(C)C(=O)N[C@H](C(=O)N[C@@H](CCCNC(=N)N)C(=O)N[C@@H](CCC(N)=O)C(=O)N[C@@H](CCCNC(=N)N)C(=O)N[C@@H](Cc1ccc(O)cc1)C(N)=O)[C@@H](C)O [Compound 70, Y-Aib-E-G-T-F-T-S-D-Y-S-I-Aib-L-D-Q-Q-A-Q-Aib-A-F-V-R-H-L-I-N-K(1,3)-Aib-T-R-Q-R-Y-NH2.C18DA-gGlu-gGlu-gGlu-gGlu-gGlu-eLys(1,2)]	–	9.70	9.70	9.1 mg/mL	6.92	–
CC[C@H](C)[C@H](NC(=O)[C@H](CC(C)C)NC(=O)[C@H](Cc1c[nH]cn1)NC(=O)[C@H](CCCNC(=N)N)NC(=O)[C@@H](NC(=O)[C@H](Cc1ccccc1)NC(=O)[C@H](CCC(=O)O)NC(=O)C(C)(C)NC(=O)[C@H](CCC(N)=O)NC(=O)[C@H](C)NC(=O)[C@H](CCC(N)=O)NC(=O)[C@H](CCCCN)NC(=O)[C@H](CCC(=O)O)NC(=O)[C@H](CC(C)C)NC(=O)C(C)(C)NC(=O)[C@@H](NC(=O)[C@H](CO)NC(=O)[C@H](Cc1ccc(O)cc1)NC(=O)[C@H](CC(=O)O)NC(=O)[C@H](CO)NC(=O)[C@@H](NC(=O)[C@H](Cc1ccccc1)NC(=O)[C@@H](NC(=O)CNC(=O)[C@H](CCC(=O)O)NC(=O)C(C)(C)NC(=O)[C@@H](N)Cc1ccc(O)cc1)[C@@H](C)O)[C@@H](C)O)[C@@H](C)CC)C(C)C)C(=O)N[C@@H](CC(N)=O)C(=O)N[C@@H](CCCCNC(=O)COCCOCCNC(=O)COCCOCCNC(=O)CC[C@H](NC(=O)CC[C@H](NC(=O)CC[C@H](NC(=O)CC[C@H](NC(=O)CCCCCCCCCCCCCCCCC(=O)O)C(=O)O)C(=O)O)C(=O)O)C(=O)O)C(=O)NC(C)(C)C(=O)N[C@H](C(=O)N[C@@H](CCCNC(=N)N)C(=O)N[C@@H](CCC(N)=O)C(=O)N[C@@H](CCCNC(=N)N)C(=O)N[C@@H](Cc1ccc(O)cc1)C(N)=O)[C@@H](C)O [Compound 73, Y-Aib-E-G-T-F-T-S-D-Y-S-I-Aib-L-E-K-Q-A-Q-Aib-E-F-V-R-H-L-I-N-K(1,3)-Aib-T-R-Q-R-Y-NH2.C18DA-gGlu-gGlu-gGlu-gGlu-OEG-OEG(1,2)]	–	9.40	9.40	4.9 mg/mL	6.87	8.23
CC[C@H](C)[C@H](NC(=O)[C@H](CC(C)C)NC(=O)[C@H](Cc1c[nH]cn1)NC(=O)[C@H](CCCNC(=N)N)NC(=O)[C@@H](NC(=O)[C@H](Cc1ccccc1)NC(=O)[C@H](C)NC(=O)C(C)(C)NC(=O)[C@H](CCC(N)=O)NC(=O)[C@H](C)NC(=O)[C@H](CCC(N)=O)NC(=O)[C@H](CCCCN)NC(=O)[C@H](CCC(=O)O)NC(=O)[C@H](CC(C)C)NC(=O)C(C)(C)NC(=O)[C@@H](NC(=O)[C@H](CO)NC(=O)[C@H](Cc1ccc(O)cc1)NC(=O)[C@H](CC(=O)O)NC(=O)[C@H](CO)NC(=O)[C@@H](NC(=O)[C@H](Cc1ccccc1)NC(=O)[C@@H](NC(=O)CNC(=O)[C@H](CCC(=O)O)NC(=O)C(C)(C)NC(=O)[C@@H](N)Cc1ccc(O)cc1)[C@@H](C)O)[C@@H](C)O)[C@@H](C)CC)C(C)C)C(=O)N[C@@H](CC(N)=O)C(=O)N[C@@H](CCCCNC(=O)[C@@H](N)CCCNC(=O)CC[C@H](NC(=O)CC[C@H](NC(=O)CC[C@H](NC(=O)CC[C@H](NC(=O)CC[C@H](NC(=O)CC[C@H](NC(=O)CCCCCCCCCCCCCCCCC(=O)O)C(=O)O)C(=O)O)C(=O)O)C(=O)O)C(=O)O)C(=O)O)C(=O)NC(C)(C)C(=O)N[C@H](C(=O)N[C@@H](CCCNC(=N)N)C(=O)N[C@@H](CCC(N)=O)C(=O)N[C@@H](CCCNC(=N)N)C(=O)N[C@@H](Cc1ccc(O)cc1)C(N)=O)[C@@H](C)O [Compound 87, Y-Aib-E-G-T-F-T-S-D-Y-S-I-Aib-L-E-K-Q-A-Q-Aib-A-F-V-R-H-L-I-N-K(1,3)-Aib-T-R-Q-R-Y-NH2.C18DA-gGlu-gGlu-gGlu-gGlu-gGlu-gGlu-dtOrn(1,2)]	–	9.70	8.77	4.9 mg/mL	7.24	–
